For eleven compounds, logP results are on record in the SangsterLogP compilation.

This data set is described as follows: method code SF, from DOI: 10.1021/jm00128a037, PMID: 2754714.
Take `CCCCOC(=O)CCCc1cc(CN2CCCC2)c(O)c(CN2CCCC2)c1`: the logP turned out to be 1.11.
In the case of `CC(C)COC(=O)Cc1cc(CN2CCCC2)c(O)c(CN2CCCC2)c1` it was 0.1; in that of `CCCCOC(=O)Cc1cc(CN2CCCC2)c(O)c(CN2CCCC2)c1`, 0.18.
Then `CCCCOC(=O)CCc1cc(CN2CCCC2)c(O)c(CN2CCCC2)c1`, with 0.3; and `CCOC(=O)Cc1cc(CN2CCCC2)c(O)c(CN2CCCC2)c1`, with -0.74; and `CC(C)OC(=O)Cc1cc(CN2CCCC2)c(O)c(CN2CCCC2)c1`, with -0.41.
In the case of `CC(C)COC(=O)CCCc1cc(CN2CCCC2)c(O)c(CN2CCCC2)c1` it was 0.86; in that of `CCCOC(=O)Cc1cc(CN2CCCC2)c(O)c(CN2CCCC2)c1`, -0.37.
On to `CCCOC(=O)CCc1cc(CN2CCCC2)c(O)c(CN2CCCC2)c1`, for which the logP was -0.11.
As for `CC(C)COC(=O)CCc1cc(CN2CCCC2)c(O)c(CN2CCCC2)c1`, the lipophilicity (logP) is 0.19.
Then `CC(C)OC(=O)CCc1cc(CN2CCCC2)c(O)c(CN2CCCC2)c1`, with -0.21.
